Experimental findings from ChEMBL document CHEMBL5036301, “Heteroaryl ether analogues of an antileishmanial 7-substituted 2-nitroimidazooxazine lead afford attenuated hERG risk: In vitro and in vivo appraisal” (Eur J Med Chem, 2021) are described below.

pIC50: −log10 of the molar value. Values after ≈ are worked out from the molar mass of the structure shown. A value given as a limit tells only on which side of the number the result lay.

In data set [1] the test system is Mycobacterium tuberculosis. Kind of data set: Antitubercular activity against Mycobacterium tuberculosis H37Rv assessed as reduction in microbial growth under aerobic condition by luminescence analysis. It counts as functional.
Data set [2] can be described thus: in vivo. As to conditions: mouse, po, 25 mg/kg.
Data set [3] is described as follows: Kinetic solubility of compound in water at pH7 by HPLC analysis. The following applies: pH 7.
Data set [4] can be described thus: in vivo. The following applies: mouse, po, 25 mg/kg. The source holds these as a separate data set.
For data set [5], the system named is Leishmania infantum. Put plainly: Antileishmanial activity against Leishmania infantum amastigotes infected in golden hamster assessed as reduction in parasite load in spleen tissue at 50 mg/kg, po administered once daily for 5 days relative to control. It counts as functional. The following applies: 120 h, time 5 day.
For data set [6], the system named is Leishmania infantum. Kind of data set: Antileishmanial activity against Leishmania infantum MHOM/MA(BE)/67 amastigotes infected in macrophages assessed as reduction in parasite burden by giemsa staining based microscopic analysis. It counts as functional, organism-based.
Data set [7] is described as follows: AUClast in mouse at 25 mg/kg, po measured upto 24 hrs LC-MS/MS analysis. The following applies: in vivo.
The nature of data set [8]: AUClast in hamster at 41 to 51 mg/kg, po measured upto 24 hrs LC-MS/MS analysis. The following applies: chinese hamster, in vivo.
The test system of data set [9] is Leishmania infantum. Kind of data set: Antileishmanial activity against Leishmania infantum amastigotes infected in golden hamster assessed as reduction in parasite load in bone marrow tissue at 50 mg/kg, po administered once daily for 5 days relative to control. The format is functional. The following applies: 120 h, time 5 day.
In a further data set the test system is Trypanosoma cruzi. Kind of data set: Antitrypanosomal activity against Trypanosoma cruzi Tulahuen CL2 infected in human MRC-5 cells assessed as parasite growth. It counts as functional, organism-based. The following applies: Tulahuen CL2, MRC5.
The nature of data set [10]: Half life in mouse at 25 mg/kg, po measured upto 24 hrs LC-MS/MS analysis. As to conditions: in vivo.
Data set [11] can be described thus: in vivo. As to conditions: chinese hamster, po.
Data set [12] can be described thus: in vivo. As to conditions: chinese hamster, po. This is another data set of the same source.
The subject of data set [13] is Mycobacterium tuberculosis. Kind of data set: Antitubercular activity against Mycobacterium tuberculosis H37Rv assessed as reduction in microbial growth under anaerobic condition by luminescence analysis. The format is functional.
The test system of the next data set is MRC5. Put plainly: Cytotoxicity against human MRC5 cells assessed as cell viability after 72 hrs by fluorimetric analysis. The format is ADME, cell-based. As to conditions: MRC5, 72 h.
The subject of data set [14] is Leishmania donovani. Put plainly: Antileishmanial activity against Leishmania donovani amastigotes infected in BALB/C mouse assessed as reduction in parasite burden in liver tissue at 50 mg/kg, po administered once per day for 5 days relative to control. The format is functional. As to conditions: 120 h, time 5 day.
Data set [15] deals with Leishmania infantum. Kind of data set: Antileishmanial activity against Leishmania infantum amastigotes infected in golden hamster assessed as reduction in parasite load in liver tissue at 50 mg/kg, po administered once daily for 5 days relative to control. The format is functional. As to conditions: 120 h, time 5 day.
A short description of data set [16]: Half life in hamster at 41 to 51 mg/kg, po measured upto 24 hrs LC-MS/MS analysis. As to conditions: chinese hamster, in vivo.
Another data set addresses hERG (KCNH2) (Homo sapiens, UniProt Q12809). Put plainly: Inhibition of human ERG expressed in HEK293 cells at 10 uM relative to control. It counts as cell-based. As to conditions: HEK293 cells expressing human ERG.
Data set [17] can be described thus: Kinetic solubility of compound in 0.1 M Hcl at pH1 by HPLC analysis. The following applies: pH 1, read-out: Kinetic_solubility. The format is physicochemical.
A short description of data set [18]: Clearance in mouse at 1 mg/kg, iv measured upto 24 hrs LC-MS/MS analysis. As to conditions: in vivo.
A short description of data set [19]: Half life in mouse at 1 mg/kg, iv measured upto 24 hrs LC-MS/MS analysis. The following applies: in vivo.
The subject of data set [20] is Leishmania donovani. Kind of data set: Antileishmanial activity against Leishmania donovani amastigotes infected in mouse J774A.1 cells incubated for 72 hrs by luciferase assay. It counts as functional, organism-based. The following applies: J774.A1, 72 h.
Data set [21] in a line: Initial plasma concentration in mouse at 1 mg/kg, iv measured upto 24 hrs LC-MS/MS analysis.
A short description of data set [22]: Volume of distribution at steady state in mouse at 1 mg/kg, iv measured upto 24 hrs LC-MS/MS analysis. As to conditions: in vivo.
For data set [23] the following is noted: mouse, in vivo, po, 25 mg/kg, 24 h.
Data set [24] can be described thus: AUClast in mouse at 1 mg/kg, iv measured upto 24 hrs LC-MS/MS analysis. As to conditions: in vivo, 24 h.

Sequence of hERG (KCNH2) (Q12809 whole entry): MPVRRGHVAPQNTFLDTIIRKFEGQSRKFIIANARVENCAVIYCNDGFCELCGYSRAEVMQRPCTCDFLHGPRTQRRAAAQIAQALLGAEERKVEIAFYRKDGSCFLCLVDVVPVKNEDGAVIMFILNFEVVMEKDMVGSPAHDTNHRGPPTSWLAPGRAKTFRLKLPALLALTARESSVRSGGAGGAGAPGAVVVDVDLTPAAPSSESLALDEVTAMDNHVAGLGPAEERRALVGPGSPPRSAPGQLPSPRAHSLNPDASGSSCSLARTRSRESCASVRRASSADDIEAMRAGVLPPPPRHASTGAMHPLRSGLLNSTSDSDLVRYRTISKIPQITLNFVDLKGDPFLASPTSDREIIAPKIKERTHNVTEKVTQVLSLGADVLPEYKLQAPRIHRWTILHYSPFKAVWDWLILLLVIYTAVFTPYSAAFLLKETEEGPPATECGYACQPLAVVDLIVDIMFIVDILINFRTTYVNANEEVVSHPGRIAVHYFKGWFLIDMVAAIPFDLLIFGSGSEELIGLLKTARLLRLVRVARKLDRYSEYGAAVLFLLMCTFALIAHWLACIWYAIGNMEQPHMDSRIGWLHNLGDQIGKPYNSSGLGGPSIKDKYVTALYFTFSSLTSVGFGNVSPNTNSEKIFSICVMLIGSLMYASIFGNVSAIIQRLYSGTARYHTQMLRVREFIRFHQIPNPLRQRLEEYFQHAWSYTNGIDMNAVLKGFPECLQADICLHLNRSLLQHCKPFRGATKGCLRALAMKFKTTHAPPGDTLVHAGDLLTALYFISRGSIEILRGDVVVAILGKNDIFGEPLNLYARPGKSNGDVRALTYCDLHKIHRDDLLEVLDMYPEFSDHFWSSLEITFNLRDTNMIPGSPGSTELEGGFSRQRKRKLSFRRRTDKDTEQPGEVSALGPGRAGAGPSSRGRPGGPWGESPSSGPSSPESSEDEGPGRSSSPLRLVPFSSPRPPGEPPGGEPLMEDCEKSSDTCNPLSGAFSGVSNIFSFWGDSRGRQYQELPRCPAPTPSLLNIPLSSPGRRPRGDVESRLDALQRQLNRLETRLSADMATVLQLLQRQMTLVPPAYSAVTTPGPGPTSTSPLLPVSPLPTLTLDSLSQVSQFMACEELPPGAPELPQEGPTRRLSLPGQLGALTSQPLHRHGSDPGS

Take `C[C@]1(COc2ccc(C(F)(F)F)cn2)CCn2cc([N+](=O)[O-])nc2O1`: the results for the MIC in data set [1] and in [13] were 0.16 µM and 3.8 µM, respectively. Also, the results for the Tmax at 24 h in the data set “in vivo [2]” and in the data set “in vivo [12]” were 222 min and 45 min, respectively. In data set [3], this compound yielded a solubility kinetic of 26 µg/mL (≈ 72.6 µM). Also, the Cmax at 24 h turned out to be 9500 ng/mL in “in vivo [4]” and 45 ng/mL in “in vivo [11]”. Besides, the inhibition in vivo at 50 mg/kg in the data set on Leishmania infantum [5] was determined as 47.1%; in the data set with Leishmania infantum [9], 54%; in the data set with Leishmania donovani [14], 84%; in the data set with Leishmania infantum [15], 51.8%. In addition, the pIC50 in the data set on Leishmania infantum [6] is 6.54; in the data set with Trypanosoma cruzi it was 6.47; in the data set on MRC5, less than 4.19. Also, the AUC(0-t) at 24 h in [7] came to 39600 ng·h/mL; in data set [8], 72 ng·h/mL. Besides, the figures for the half-life at 24 h in data set [10] and in data set [16] were 90 min and 43.2 min, respectively.

`CC1(COc2ccc(C(F)(F)F)cn2)CCn2cc([N+](=O)[O-])nc2O1` (configuration not stated): the results for the MIC in data set [1] and in data set [13] were 0.6 µM and 8.9 µM, respectively. In addition, in the data set “in vivo [2]”, the time of peak concentration (Tmax) at 24 h turned out to be 30 min. For the same compound, the solubility kinetic in data set [3] was 19 µg/mL (≈ 53 µM); in data set [17] it was 12 µg/mL (≈ 33.5 µM). This compound returned a Cmax at 24 h in “in vivo [4]” of 15000 ng/mL. Also, the pIC50 in the data set with Leishmania infantum [6] was 6.57; with Trypanosoma cruzi, 6.54; in the data set with Leishmania donovani [20], 6.68; in the data set on MRC5 it was less than 4.19. At hERG (KCNH2), the inhibition at 10 µM came out at 18%. In addition, the AUClast was determined as 57100 ng·h/mL in data set [7] (24 h) and 544 ng·h/mL in [24]. The compound further yielded a clearance at 24 h in data set [18] of 31 mL/min/kg. Moreover, in [19], the half-life at 24 h is 51 min. In addition, in data set [21], the C0 at 24 h is 810 ng/mL. Also, in data set [22], the Vd at 24 h is 1.3 L/kg. The F in data set [23] was 100%. In addition, the inhibition in vivo at 50 mg/kg in the data set on Leishmania donovani [14] worked out at 96%.
